Measured values reported in patent publication US20220354805A1, “Cannabidiol (CBD) as Chemical for Treating Aging-related Degenerative Diseases and Promoting Health Aging” (Hemix Biotech Limited, priority 2021, published 2022).

Test system: liver of LMNA^G609G/G609G mice
Assay: Senescence-associated beta-galactosidase staining of mouse liver
Format: in vivo
Conditions: CBD treated LMNA^G609G/G609G mice
Description: In the step of study the histology of mouse skin and liver, the mice were sacrificed by cervical dislocation under anesthesia by intraperitoneal (IP) injection of 100 mg/kg ketamine and 16 mg/kg xylazine in sterile water. Major organs, including skin, muscle, intestine, kidney, spleen, liver, lung, heart, aorta, were collected. Half of the tissues were snap-frozen in liquid nitrogen and stored at −80° C. for extraction of proteins and RNA. Another half of the tissues were fixed in 4% paraformaldehyde (PFA) in PBS and shook at 4° C. overnight. For paraffin wax sections, the fixed tissues were incubated in 70% ethanol and shook at 4° C. overnight. Followed by stepwise dehydration of tissues in 90%, 95%, 100%, and 100% ethanol for 1 hour each. Then the tissues were incubated in 50% xylene and 50% ethanol for 30 to 40 minutes and transferred to 100% xylene for 10 to 15 minutes. The tissues were then incubated in wax for 30 minutes and transferred to new wax for 3 times. Then the tissues were placed in the wax inside a vacuum chamber overnight. On the following day, the tissues were embedded into paraffin blocks and sectioned into slides with 6 μm in thickness. After the tissue sections were dried, they were incubated in xylene solution twice each for 5 minutes. […]

C=C(C)[C@@H]1CCC(C)=C[C@H]1c1c(O)cc(CCCCC)cc1O [CBD, Cannabidiol]
increase of senescent cells in liver: rescued
